According to patent US8716237B2, “Methods for the treatment or prevention of hemorrhagic conditions” (University of Rochester, priority 2007, dated 2014):

What was measured:
[1] = test system: PAI-1; assay: PAI-1 mRNA expression in A549 cells (Q-PCR); assay type: cell-based, human; settings: SB203580 pretreatment (1 μM, 2 hours)
Protocol: Cells were cultured on 12-well plates and transfected with various expression plasmids, as described in Examples 1-15 and the Brief Description of the Drawings. All transient transfections were carried out in triplicate using TransIT-LT1 reagent (Minis) following the manufacturer's instructions. […] Transfected cells were pretreated with or without chemical inhibitors including SB203580 (1 μM) for 2 hours. S.p. or pneumolysin was then added to the transfected cells 42 hours after transfection. After 5 hours, the cells were harvested for either RNA extraction and real-time quantitative PCR analysis as described in the Examples or luciferase assay. […]
Total RNA was isolated with TRIzol reagent (Invitrogen) by following the manufacturer's instructions. Real-Time Quantitative RT-PCR analysis of PAI-1 and CYLD were performed as described in Jono et al., “NF-κB Is Essential for Induction of CYLD, the Negative Regulator of NF-κB: Evidence for a Novel Inducible Autoregulatory Feedback Pathway,” J. Biol. Chem. 279:36171-4 (2004), which is hereby incorporated by reference in its entirety. […] Relative quantity of PAI-1 mRNA was obtained using comparative CT Method and was normalized by Cyclophilin and GAPDH as an endogenous control for human and mouse, respectively (Applied Biosystems).

[2] = test system: PAI-1; assay: PAI-1 induction in BEAS-2B, SAEC and NHBE cells; assay type: cell-based, human; settings: SB203580
Description: J. Physiol. Lung Cell. Mol. Physiol. 281:L616-23 (2001), and Hasegawa et al., “Decreased Intracellular Iron Availability Suppresses Epithelial Cell Surface Plasmin Generation. Transcriptional and Post-transcriptional Effects on u-PA and PAI-1 Expression,” Am. J. Respir. Cell. Mol. Biol. 21:275-82 (1999), each of which is hereby incorporated by reference in its entirety. Wild type and Cyld-deficient mouse embryonic fibroblasts were obtained from E13 embryos and maintained in DMEM supplemented with 10% FBS (Invitrogen). […]
Cells were cultured on 12-well plates and transfected with various expression plasmids, as described in Examples 1-15 and the Brief Description of the Drawings. […] After 5 hours, the cells were harvested for either RNA extraction and real-time quantitative PCR analysis as described in the Examples or luciferase assay. […]
Total RNA was isolated with TRIzol reagent (Invitrogen) by following the manufacturer's instructions. Real-Time Quantitative RT-PCR analysis of PAI-1 and CYLD were performed as described in Jono et al., “NF-κB Is Essential for Induction of CYLD, the Negative Regulator of NF-κB: Evidence for a Novel Inducible Autoregulatory Feedback Pathway,” J. Biol. Chem. 279:36171-4 (2004), which is hereby incorporated by reference in its entirety. […]

C[S+]([O-])c1ccc(-c2nc(-c3ccncc3)c(-c3ccc(F)cc3)[nH]2)cc1 (centres unmarked) [SB203580]
S. pneumoniae-induced PAI-1 expression [1]: greatly reduced S. pneumoniae-induced PAI-1 expression | PAI-1 induction by S. pneumoniae WT and PLY [2]: inhibited PAI-1 induction
